How the values were obtained:
Apis mellifera = settings: acute, duration: 48 hours, mortality
Bibionidae = settings: chronic/long-term; duration: 28 days; development
Canidae = settings: oral, Dog Other, organ weight
Colinus virginianus = settings: reproduction developmental
Coturnix japonica = settings: acute, oral
Daphnia magna = settings: chronic/long-term; duration: 21 days
Lepomis macrochirus = settings: acute; duration: 96 hours; mortality
Menidia beryllina = settings: acute; duration: 96 hours; mortality
Mus musculus = settings: acute; oral; mortality
Oncorhynchus mykiss = settings: mortality
Palaemonetes pugio = settings: acute; duration: 96 hours; mortality
Rattus norvegicus = settings: chronic
Aphidius rhopalosiphi = assay: LR50; higher = less toxic; settings: acute; duration: 48 hours; mortality
Typhlodromus pyri = assay: LR50; higher = less toxic; settings: chronic/long-term; duration: 7 days; mortality

`COc1ncc(F)c2nc(S(=O)(=O)Nc3c(F)cccc3F)nn12` [Florasulam] showed an LD50 (Apis mellifera; dermal) greater than 100 µg/piece, an LD50 (Apis mellifera; oral, unspecified) greater than 100 µg/piece and an NOEC (Bibionidae) of 10 mg/L. For the same compound, the NOAEL (Canidae; chronic, duration: 1 years) was 5 mg/kg-day, the NOAEL (Canidae; subchronic, duration: 90 days) was 5 mg/kg-day and the NOAEL (Colinus virginianus) was 1500 mg/kg-day. It also gave an LC50 (Coturnix japonica; diet) greater than 938 mg/kg-day, an LD50 (Coturnix japonica; mortality) of 1050 mg/kg-day and an NOEC (Daphnia magna) of 23.4 mg/L. The LC50 (Lepomis macrochirus) was greater than 100 mg/L, the LC50 (Menidia beryllina) was greater than 122 mg/L and the LD50 (Mus musculus) was greater than 5000 mg/kg-day. For the same compound, the LC50 (Oncorhynchus mykiss; acute, duration: 96 hours) was greater than 100 mg/L, the NOEC (Oncorhynchus mykiss; chronic/long-term, duration: 28 days) was 119 mg/L and the LC50 (Palaemonetes pugio) was greater than 120 mg/L. For the same compound, the NOAEL (Rattus norvegicus) was greater than 100 mg/kg-day, the LC50 (Tagia sp.; acute, duration: 14 days, mortality) was greater than 1320 mg/kg and the NOEC (Tagia sp.; chronic/long-term) was 0.203 mg/kg. It also gave an LR50 (Aphidius rhopalosiphi) greater than 15 g/ha and an LR50 (Typhlodromus pyri) greater than 15 g/ha.
